Key:
Test in all cases: Growth of enteric bacteria in the presence of TEM (FIG. 1)
Format in all cases: cell-based
[1] = system: enteric bacteria expressing Class A carbapenemase; details: Class A enteric bacterial strains
Protocol: (§1) Non-limiting embodiments of detection tests for enteric and non-fermenting bacteria, with various concentration ranges of one or more antibiotics, and various concentration ranges for one or more inhibitors are shown in FIG. 1-FIG. 24 and FIG. 31. These figures illustrate the concentration of the antibiotic being tested (in μg/ml) along the x-axis (not every concentration is tested in every figure), and the amount of growth of bacteria in the sample in the y-axis. The boxes illustrate the median, interquartile range, non-outlier minimum and maximum; with asterisks representing single outliers. Each figure has a panel for Class A, Class B, and Class D producing bacteria, as well as a panel for non-carbapenemase producing bacteria (NEG). In some embodiments, the detection tests described herein are not performed by imaging a change in cell morphology.
(§2) By way of example, FIG. 1 illustrates a test of various enteric bacteria grown in the presence of several concentrations of TEM.
(§3) In some embodiments, the detection tests can comprise a plurality of wells comprising enteric bacteria and TEM over a range of concentrations of about 12 μg/ml to about 512 μg/ml (FIG. 1).

[2] = system: enteric bacteria expressing Class B carbapenemase
Protocol: as §1, §2, §3

[3] = system: enteric bacteria expressing Class D carbapenemase
Protocol: as §1, §2, §3

[4] = system: non-carbapenemase producing (NEG) enteric bacteria; details: nearly all NEG enteric bacteria
Protocol: as §1, §2, §3

## CO[C@@]1(NC(=O)C(C(=O)O)c2ccsc2)C(=O)N2[C@@H](C(=O)O)C(C)(C)S[C@@H]21 (stereo partly drawn) [TEM, disodium 6beta-(2-carboxy-2-thien-3-ylacetamido)-6alpha-methoxypenicillanate]
[1]
  concentration at which nearly all strains tested are inhibited: 24 µg/mL
[2]; Class B enteric bacteria, decrease in the average growth line
  concentration at which bacteria begin to show sensitivity: 48 µg/mL
[2]; Class B enterics
  concentration at which growth of most strains is inhibited: 384 µg/mL
[3]; Class D enteric bacteria unaffected until this concentration
  concentration reached before growth is affected: 192 µg/mL
[3]; bacteria expressing Class D, read-out: TEM concentration at which bacteria are sensitive (elevated MIC)
  MIC: ≥ 128 µg/mL
[4]
  sensitivity to TEM: sensitive to lowest concentration

Reference: patent publication US12234499B2, “Compositions, methods, systems and/or kits for detecting antimicrobial resistance in bacteria” (priority 2016, dated 2025)
